Data set [1] is described as follows: Blood-brain barrier (BBB) permeability in ICR mice. The conditions noted are these: 500 mg/kg. The data set is classed as in vivo. The protocol: Each of L-serine and AST-099 was administered to 7-week-old ICR mice (n=3) at a dose of 500 mg/kg, and then the brain tissue and the blood were collected. The concentrations of L-serine distributed in the blood and the brain were quantified using LC/MS, and the BBB permeability was compared between the drugs by calculating the ratio of the concentration of L-serine in the brain to that in the blood.

Data set [2] relates to hippocampal neuronal cell HT-22. Put plainly: MTT cell viability / neuronal cell proliferation assay. To be noted: for effect on cell proliferation in complete medium: L-serine versus AST-009, 25 to 10,000 μg. The protocol: Murine hippocampal neuronal cell line HT-22 was cultured in Dulbecco's Modified Eagle's Medium (DMEM) supplemented with 10% fetal bovine serum (FBS) and 100 μg/ml gentamycin at 37° C. under a 5% CO2 atmosphere. In this Example, cells at passage 15 or below were used.
Cell proliferation activity was examined by an MTT assay for measuring cell viability. First, hippocampal neuronal cell HT-22 (1×10^4 cells) was incubated with each of serially diluted sample solutions in 96-well plates for 16 hours, and then mixed with 50 μl of MTT (3-(4,5-dimethyl thiazolyl)2,5-diphenyl tetrazolium bromide) solution (1.1 mg/ml), followed by additional incubation for 4 hours. The formed formazan crystal was dissolved in 150 μl of […], and the optical density (OD) at 540 nm was measured using a plate reader.

Data set [3] has as its system mouse hippocampal neuronal HT-22 cells treated with DMNQ. Put plainly: Neuronal cell protection against DMNQ-induced oxidative stress (DiOC6 staining). The data set is classed as cell-based. The conditions noted are these: DMNQ 10 μM, DMNQ alone 77.8%. The protocol: First, 1×10^6 cells were washed three times with 2% FBS-containing PBS solution, and the washed cells were suspended in 70% ethanol and fixed at 4° C. for 1 hour. The fixed cells were washed twice with the same solution, suspended in 250 μl of RNase A solution (50 μg/ml concentration), and incubated at 37° C. for 30 minutes to remove RNA from the cells. Then, DNA in the cells was stained at room temperature for 20 minutes by adding 250 μl of 1.12% sodium citrate buffer (pH 8.45) containing 50 μg/ml of propidium iodide. The cells were analyzed with a flow cytometer (FACS Calibur), and the distribution of the cell cycle was examined based on the content of stained DNA in each cell.
The cell protective activity of the selected drug (AST-009) against DMNQ-induced oxidative stress was compared by DiOC6 staining. […] Thus, it could be seen that the cell protective activity of AST-009 was much stronger than that of L-serine.

Where [4] appears, read: L-serine quantified by LC/MS, ICR mice, n=3.

In the case of `NCCCC[C@H](NC(=O)[C@H](CO)NC(=O)[C@H](CO)NC(=O)[C@H](CO)NC(=O)O)C(=O)O` [AST-009, H-Lys-Ser-Ser-Ser-OH], the “Concentration, Brain tissue” value in data set [1] (mouse, in vivo) is on record as 7944 ± 427 ng/g. The “Concentration, Plasma” value in data set [1] (mouse, in vivo) turned out to be 1205 ± 120 ng/mL. For the same compound, the “HT-22 cell proliferation (cell viability, MTT)” value in data set [2] (L-serine/glycerin-deficient medium, treatment concentration of 10,000 μg/ml (=10 mg/ml)) is given as “up to 139%”. The “effect on cell proliferation in complete medium” value in data set [2] is “no significant difference”. The “cell damage rate (membrane potential loss)” value is recorded as 64.3% in data set [3] (compound 0.5 mg/ml), 45.5% in data set [3] (compound 1 mg/ml) and 20.0% in data set [3] (compound 5 mg/ml).

As to `N[C@@H](CO)C(=O)O` [L-serine], the “Concentration, Brain tissue” value in data set [1] (setting [4]) came out at 7314 ± 2071 ng/g. For the same compound, the “Concentration, Plasma” value in data set [1] (setting [4]) is on record as 2121 ± 1192 ng/mL. Besides, in data set [1] (mouse, brain/plasma, ratio of L-serine concentration in brain to that in blood, ICR mice, n=3, read-out: Cbrain/Cplasma), the Kp came out at 4.16 ± 2.03. Moreover, the Cbrain/Cplasma in data set [1] (ratio of L-serine concentration in brain to that in blood, ICR mice, n=3) is 4.16 ± 2.03. The “effect on cell proliferation at high concentration” value in data set [2] (L-serine/glycerin-deficient medium, concentration of 1 mg/ml or more) was “slightly inhibited cell proliferation”. Moreover, the “effect on cell proliferation in complete medium” value in data set [2] is reported as “no significant difference”. Moreover, the results for the “cell damage rate (membrane potential loss)” value in data set [3] (compound 0.5 mg/ml), in data set [3] (compound 1 mg/ml) and in data set [3] (compound 5 mg/ml) were 59.9%, 58.7% and 54.5%, respectively.

The record behind these values is patent US20210403419A1, “SERINE DERIVATIVE COMPOUND FOR THE PREVENTION OR TREATMENT OF CENTRAL NERVOUS SYSTEM DISEASES” (Astrogen Co., Ltd., priority 2019, published 2021).
